Assay results reported in US20110319398A1 (priority 2010, published 2011).

Experiments:
[1] = tested on: YopE translocation into HEp-2 cells; assay type: cell-based, Y. pseudotuberculosis; details: 60 μM compound; HEp-2 cells infected with Yptb, 45 minutes
Yptb WT IP2666 = assay type: cell-based, Y. pseudotuberculosis; details: 60 μM compound, 26 C, 7 hrs
[2] = tested on: YopE translocation into the cytosol of HEp-2 cells; assay type: cell-based, Y. pseudotuberculosis; details: 60 μM compound, compared to DMSO control
[3] = tested on: YopE leaked into culture supernatants; assay type: cell-based, Y. pseudotuberculosis; details: 60 μM compound, HEp-2 cells infected with WT Yptb, compared to DMSO
[4] = tested on: ExoS translocation from P. aeruginosa Pa388 into HEp-2 cells; assay type: cell-based
HEp-2 cells = experiment: LDH release assay; assay type: cell-based; details: 60 μM compound, absence of Yptb
Protocol: Compounds were resuspended in RPMI supplemented with 5% FBS to a final concentration of 60 μM. Media was replaced with a volume of 100 μL and cells were incubated at 37 C and 5% CO2. A 50 μL sample was taken from the wells at 2 hrs and 24 hrs for quantification of LDH. LDH in supernatants was quantified using the Promega Cytotox 96 Non-Radioactive Cytotoxicity Assay Kit. Control samples for lysis in the absence of compounds were incubated for 45 minutes in Lysis Buffer (supplied in the kit) then collected at the same time points. The OD at 492 nm was measured spectrophotometrically on a SpectraMax 5 plate reader (Molecular Devices, Sunnyvale, Calif.).
The remaining 12 compounds were evaluated for toxicity to either Yptb or HEp-2 cells. […] The 9 non-antibacterial compounds were assessed for their ability to cause damage to epithelial cells by monitoring the release of lactate dehydrogenase (LDH), a cytoplasmic enzyme whose presence in cell supernatants indicates membrane damage. HEp-2 cells were incubated with 60 μM of each compound, in the absence of Yptb. Tissue culture supernatants were collected after 2 or 24 hours and assessed for LDH levels. […] In contrast, C35 had above baseline LDH release levels at 2 hours and this effect was exacerbated at 24 hours (FIG. 3B). […] Because of the high-level of toxicity caused by C35 at both time points, it was excluded from further characterization. In all subsequent experiments with the remaining 8 compounds, HEp-2 cells were exposed to compounds for 2 hours or less.

[5] = tested on: YscF polymer (TTSS needle); design: species or system Y. pseudotuberculosis; details: 60 μM compound, 1 mM BS3, Western blot with α-YscF
[6] = tested on: adherence of Yptb to HEp-2 cells; assay type: cell-based, Y. pseudotuberculosis
[7] = tested on: YadA-mediated autoagglutination; assay type: cell-based, Y. pseudotuberculosis; details: 60 μM C20, 3 hrs at 37 C
[8] = tested on: Sheep red blood cells infected with Yptb; assay type: cell-based
YscF = assay type: cell-based, Y. pseudotuberculosis; details: 60 μM compound, 5 mM CaCl2, 37 C, 1.5 hours
Yop secretion = assay type: cell-based, Y. pseudotuberculosis; details: 60 μM compound, secretion media (absence of calcium), 37 C
V. cholerae [9] = details: mouse, in vivo; cited from earlier work
V. cholerae [10] = details: cited from earlier work

CCOc1ccc(NC(=O)c2cnccn2)cc1 [Compound C7, N-(4-ethoxyphenyl)pyrazine-2-carboxamide]
Inhibition of YopE-mediated cell rounding [1]: cell-rounding defect was weak
Effect on bacterial growth (OD600) (Yptb WT IP2666): no effect on bacterial growth
YopE translocation into HEp-2 cells [2]: did not inhibit translocation of YopE
YopE/Yop leakage into culture supernatants [3]: significant leakage
ExoS-dependent cell rounding [4]: little or no effect

O=C1NC2=C(C(=O)c3ccccc32)C(c2ccccc2)S1 (centres unmarked) [Compound C15, 4-phenyl-1,4-dihydroindeno[1,2-d][1,3]thiazine-2,5-dione]
Effect on bacterial growth (OD600) (Yptb WT IP2666): no effect on bacterial growth
LDH release at 2 hours (HEp-2 cells; 2 hours): elevated LDH release
LDH release at 24 hours (HEp-2 cells): did not cause further membrane damage
YscF cross-linking pattern (dimer crosslink) [5]: weaker dimer crosslink
YopE/Yop leakage into culture supernatants [3]: significant leakage
ExoS-dependent cell rounding [4]: little or no effect

O=C(c1coc2nc3ccccc3nc12)N1CCN(c2ccccc2)CC1 [Compound C19, furo[3,2-b]quinoxalin-3-yl-(4-phenylpiperazin-1-yl)methanone]
Effect on bacterial growth (OD600) (Yptb WT IP2666): no effect on bacterial growth
YopE/Yop leakage into culture supernatants [3]: significant leakage
ExoS-dependent cell rounding [4]: little or no effect

Cc1nn(-c2ccccc2)c(C)c1/N=C/c1c(O)ccc2ccccc12 [Compound C20, 1-[(E)-(3,5-dimethyl-1-phenyl-pyrazol-4-yl)iminomethyl]naphthalen-2-ol]
Effect on bacterial growth (OD600) (Yptb WT IP2666): no effect on bacterial growth
LDH release at 24 hours (HEp-2 cells): slightly elevated LDH release
YscF cross-linking pattern (dimer crosslink) [5]: weaker dimer crosslink
YopE/Yop leakage into culture supernatants [3]: elevated levels of Yop leakage
Binding of Invasin-deleted (Δinv) Yptb to HEp-2 cells [6]: did not block the ability of C20 to further inhibit binding
Binding of Yptb to HEp-2 cells, of the levels of the DMSO-treated control ([6]; 60 μM compound, WT Yptb, ELISA): 15-20%
Autoagglutination activity of Yptb [7]: unaffected
Hemolysis (leakage of hemoglobin) of SRBCs infected with Yptb [8]: slightly reduced leakage of hemoglobin
ExoS-dependent cell rounding [4]: reduced cell-rounding

c1ccc2c(-c3csc(-c4ccncc4)n3)c[nH]c2c1 [Compound C24, 4-(1H-indol-3-yl)-2-(4-pyridyl)thiazole]
Effect on bacterial growth (OD600) (Yptb WT IP2666): no effect on bacterial growth
LDH release at 24 hours (HEp-2 cells): slightly elevated LDH release
Surface YscF staining (YscF): reduced
YopE/Yop leakage into culture supernatants [3]: significant leakage
ExoS-dependent cell rounding [4]: reduced cell-rounding

Cc1ccc(NC(=O)Nc2cc3c(cc2N2CCCC2)n(C)c(=O)n3C)cc1C [Compound C34, 1-(1,3-dimethyl-2-oxo-6-pyrrolidin-1-yl-benzimidazol-5-yl)-3-(3,4-dimethylphenyl)urea]
Inhibition of YopE-mediated cell rounding [1]: potent inhibitor of cell-rounding
Effect on bacterial growth (OD600) (Yptb WT IP2666): no effect on bacterial growth
YscF cross-linking pattern (dimer crosslink) [5]: consistently weaker
Ability to secrete Yops (Yop secretion): secreted less, but detectable levels of Yops
YopE translocation into HEp-2 cells [2]: did not inhibit translocation of YopE
YopE/Yop leakage into culture supernatants [3]: elevated levels of Yop leakage
ExoS-dependent cell rounding [4]: reduced cell-rounding

Cc1ccc(C2=N/C(=C/Nc3ccc4c(c3)OCCO4)C(=O)O2)cc1 [Compound C38, (4E)-4-[(2,3-dihydro-1,4-benzodioxin-6-ylamino)methylene]-2-(p-tolyl)oxazol-5-one]
Effect on bacterial growth (OD600) (Yptb WT IP2666): no effect on bacterial growth
Surface YscF staining (YscF): reduced
YopE/Yop leakage into culture supernatants [3]: elevated levels of Yop leakage
ExoS-dependent cell rounding [4]: reduced cell-rounding

O=C(O)CCCN1C(=O)c2cccc3cccc(c23)C1=O [Virstatin]
Bacterial burden on mice infected with V. cholerae (V. cholerae [9]): reduces the bacterial burden
Effects on bacterial growth (V. cholerae [10]): without deleterious effects on bacterial growth
